Assays:
[1] = Mitomycin binding kinetics to magnetically targetable carrier particle; type: physicochemical; details: for initial mitomycin remaining in the binding supernatant: 5 minutes, 25 mg carrier, 0.755 mg/mL mitomycin
Protocol: Mitomycin binding kinetics was measured at room temperature, and 40° C. […] The mixture was incubated at room temperature and at 40° C. for various time periods up to 60 minutes. The concentration of mitomycin remaining in the binding supernatant was obtained by filtering the sample at a predefined time point and then analyzing by HPLC to determine percentage bound.

swine = test: 28 day toxicity study, pulmonary artery delivery with magnetic targeting
Protocol: Each animal received a single dose of either control or test article at fixed concentrations by pulmonary artery infusion. […] The vehicle control group received 16 mL of vehicle.
A test article was administered as a single infusion to Groups 1 and 2 and as two infusions in all other groups. A 15 minute magnetic retention period separated the two infusions in Groups 3 and 4. The infusion rate was maintained at a flow rate of 2 mL/min. At the end of the 15 minute magnetic retention period, an angiogram was performed to verify arterial patency in the selected lung lobe. Assessment of toxicity following treatment included laboratory tests in which blood samples were collected for evaluation of serum chemistry, hematology and coagulation parameters prior to dosing (Day 0) and post-dosing on Days 1, 3, 7, 14, 21 and 28.

[2] = tested on: squamous cell carcinoma or adenocarcinoma; details: full series of 4 treatments, 10 mg MMC each, bronchial artery; cited from earlier work
[3] = tested on: squamous cell carcinoma of the lung; details: 10 mg MMC intra-arterially, after 28 to 48 days, 9 patients; cited from earlier work
bronchogenic carcinoma = details: 39 patients; cited from earlier work
[4] = Toxicokinetic analysis of plasma MMC after pulmonary artery infusion

## CO[C@@]12[C@H](COC(N)=O)C3=C(C(=O)C(C)=C(N)C3=O)N1C[C@@H]1N[C@@H]12 [MMC, Mitomycin C]
[1]; 40° C
  initial mitomycin remaining in the binding supernatant: 3%
[1]; room temperature
  initial mitomycin remaining in the binding supernatant: 2%
[1]; both room temperature and 40° C
  time to adsorption equilibrium: less than 5 minutes
[1]; room temperature and 40° C, up to 60 minutes
  stability of mitomycin solution during incubation: stable at both temperatures
swine; 28 days post-dosing, not dose-related
  stomach ulceration: stomach ulceration was seen in some animals
swine; MMC alone group, 4 mg MMC
  clinical signs: transient diarrhea in two animals
swine; MMC control, 4 mg MMC
  embolization (post-treatment angiography): no embolization
[2]
  patients with a 20% to 50% decrease of the tumor area: 3 patients
  patients with a 50% decrease of the tumor area: 5 patients
[3]
  complete remission of the tumor, patients: 2 patients
  partial remission, patients: 2 patients
Bronchogenic carcinoma
  neurologic complications: No neurologic complications occurred
  side effects: insignificant
[4]; Yorkshire, pig, in vivo, 4 mg
  Cmax: 178 ± 27.1 ng/mL
  Vd: 47.3 ± 13.2 L
  clearance: 618 ± 54 mL/min
[4]; Yorkshire, pig, in vivo, 4 mg, β or λ t1/2, swine, 4 mg MMC
  half-life: 1.12 ± 0.278 h
[4]; Yorkshire, swine, in vivo, distribution half-life, swine, summary over dose groups
  half-life: ~0.133 h
[4]; Yorkshire, swine, in vivo, elimination half-life, swine, summary over dose groups
  half-life: ~1.08 h
[4]; swine, 4 mg MMC, pulmonary artery infusion, plasma MMC
  AUC: 6507 ± 568 (ng/ml) × min

Reference: patent US20070274907A1 (priority 2004, published 2007)
